Converted amounts (≈) assume the structure as drawn. “And” between values parts separate entries of the source, which are not always exact repeats. Identical values can stand only once. “Also recorded” adds a separate entry of the source. Like-named read-outs stand apart in the source and are kept apart here. Square brackets hold non-standard residues; d marks the D form. Peptide text beside a SMILES is read from it.
What was measured:
[1] = amide bond, 15-membered ring, PyBOP/DIEA, DCM, 0.375 mM, 25.0 °C
MD-MBA-231 = type: cell-based, human; settings: 72 h
Experimental: (§1) Cell culture: MCF-7/MD-MAB-231 (human breast cancer cell line ATCC HTB-22/HTB-26), Hep G2 (human liver cancer cell line ATCC HB-8065), Hela (human cervical carcinoma cell line ATCC CCL-2), A459 (human lung cancer cell line ATCC CCL-185), and HUVEC (primary umbilical vein endothelial cell line ATCC PCS-100-010) were obtained from the Jinan Department of Pathology, University School of Medicine (Jinan University, Guangzhou, China). The cells were cultured in a Modified Eagle’s Medium (DMEM) including 10% fetal bovine serum, 1% penicillin-streptomycin, and antifungal agent, and cultured under standard conditions (5% CO2 atmosphere and temperature at 37 °C). The MTT method was used to evaluate the cytotoxicities of galaxamide and its analogues on the five cancerous cells. In this experiment, the number of regulated cells was 2 × 10^3 cells/well. Then, the cells, as well as galaxamide and its analogues of different concentrations (0, 2.5, 5, and 10 μg/mL), were seeded on a 96-well cell culture plate and cultured in a 37 °C, 5% CO2 incubator for 72 h. After that, 20 µL/well of MTT solution (5 mg/mL phosphate-buffered saline) was added and incubated for 5 h. The medium was discarded and replaced with 100 µL/well of DMSO to dissolve the formazan salt. The color intensity of the cell culture at 570 nm was measured using a microplate spectrophotometer (SpectroAma™ 250, Winooski, VT, USA).

MCF-7 = type: cell-based, human; settings: 72 h
Experimental: as §1

A549 = type: cell-based, human; settings: 72 h
Experimental: as §1

HUVEC = type: cell-based, human; settings: 72 h
Experimental: as §1

HepG2 = type: cell-based, human; settings: 72 h
Experimental: as §1

Hela = type: cell-based, human; settings: 72 h
Experimental: as §1

MCF-7 cells [2] = experiment: Hoechst 33,342 staining of nuclear morphology; type: cell-based, human; settings: 72 h
Experimental: The morphological alteration of MCF-7 cells was analyzed by the method of Hoechst 33,342 staining (Figure 5). […] The pyknotic nuclei increased with the increasing concentration of these compounds.
[…] After that, the cell culture was washed with 1 mL of PBS and then added with 3 mL of 4% paraformaldehyde solution for 15 min. Then, 1 mL of the prepared Hoechst 33,342 staining solution was added. The resulting mixture was incubated at room temperature for 15 min in the dark.

MCF-7 cells [3] = experiment: Cell cycle distribution by propidium iodide staining / flow cytometry; type: cell-based, human; settings: 0, 2.5, 5, 10 µg/mL, 72 h
Experimental: Therefore, propidium iodide (PI) staining method was used to further investigate the changes in the cell cycle distribution of MCF-7. In particular, MCF-7 cells were exposed to galaxamide, Z-3, and Z-6 with concentrations of 0, 2.5, 5, and 10 µg/mL for 72 h. Generally, the main effects of galaxamide, Z-3, and Z-6 on MCF-7 cells were in the G0/G1 phase. There was no obvious sub diploid peak in flow cytometry.
(§2) The concentration of 1 × 10^4 cells per well of MCF-7 cells were seeded in 96-well plates. The cell cultures were added to the compounds with a concentration of 0, 2.5, 5, and 10 µg/mL, and incubated for 72 h. After that, 5 µL of Annexin V-fluorescein isothiocyanate (FITC) and 5 µL of PI were added for dual staining of the cells for analysis by FACS flow cytometry. Cell cycles and apoptotic cells were determined by counting the FITC-positive and PI-negative fractions.

MCF-7 cells [4] = experiment: Annexin V-FITC/PI double staining apoptosis, flow cytometry; type: cell-based, human; settings: 0, 2.5, 5, 10 µg/mL, 72 h
Experimental: The Annexin V-FITC/PI double staining method was used to analyze the changes in the apoptosis of MCF-7 cells after 72 h of galaxamide, Z-3, and Z-6 exposure. […] At low concentrations, the effects of all the tested compounds were not obvious. When the concentration reached 10 μg/mL, the apoptotic effects of galaxamide, Z-3, and Z-6 on MCF-7 cells were more obvious in the late apoptotic state.
as §2
The apoptotic cells were quantified according to the instructions provided in an Annexin V-FITC (Sigma-Aldrich, St. Louis, MO, USA) cell apoptosis assay kit. Briefly, about 1.5 × 10^5 cells were plated in 96-well plates and treated with galaxamide and its representative analogues (0, 2.5, 5, and 10 µg/mL) for 48 h. The cells were then resuspended in a […] binding buffer. Afterward, […] of annexin V-fluorescein isothiocyanate (FITC) was added, followed by incubation in darkness at room temperature for 10 min. The cells were again resuspended in […] binding buffer and stained with […] PI. The prepared cells were then analyzed using a flow cytometry (Coulter Epics Elite, Miami, FL, USA). The cells in the FITC-positive and PI-negative fractions were regarded as apoptotic cells.

Structure (SMILES)	IC50 MD-MBA-231 (MD-MBA-231) [µg/mL]	IC50 MCF-7 (MCF-7) [µg/mL]	IC50 A549 (A549) [µg/mL]	IC50 HUVEC (HUVEC) [µg/mL]	IC50 HepG2 (HepG2) [µg/mL]	IC50 Hela (Hela) [µg/mL]	other results
CC(C)C[C@@H]1NC(=O)[C@@H]2CCCN2C(=O)[C@H](CC(C)C)NC(=O)[C@@H]2CCCN2C(=O)[C@H](CC(C)C)NC1=O [Cyclo (Leu-Pro-Leu-Pro-Leu)]							ring closure, yield after HPLC ([1]; from H-Leu-Pro-Leu-Pro-Leu-OH?): 35.5% and 53.9%
CC(C)C[C@@H]1NC(=O)[C@@H]2CCCN2C(=O)[C@@H](CC(C)C)NC(=O)[C@@H]2CCCN2C(=O)[C@H](CC(C)C)NC1=O [Cyclo (Leu-Pro-D-Leu-Pro-Leu)]							ring closure, yield after HPLC ([1]; from H-Leu-Pro-dLeu-Pro-Leu-OH?): 36.4%
CC(C)C[C@H]1NC(=O)[C@@H]2CCCN2C(=O)[C@@H](CC(C)C)NC(=O)[C@@H]2CCCN2C(=O)[C@@H](CC(C)C)NC1=O [Compound Z-8, Cyclo (D-Leu-Pro-D-Leu-Pro-D-Leu)] (cyclo(P[dL]P[dL][dL]))	20.16 ± 2.24 (≈ 37.8 µM)	7.82 ± 1.18 (≈ 14.7 µM)	15.88 ± 1.42 (≈ 29.8 µM)	>40	9.00 ± 0.83 (≈ 16.9 µM)	7.97 ± 0.61 (≈ 14.9 µM)	
CC(C)C[C@@H]1NC(=O)[C@@H]2CCCN2C(=O)[C@@H](CC(C)C)NC(=O)[C@@H](CC(C)C)NC(=O)[C@@H]2CCCN2C1=O [Cyclo (D-Leu-Pro-Leu-Pro-D-Leu)]							ring closure, yield after HPLC ([1]; from H-dLeu-Pro-Leu-Pro-dLeu-OH?): 34.5%
CC(C)C[C@@H]1NC(=O)[C@@H]2CCCN2C(=O)[C@H](CC(C)C)NC(=O)[C@@H]2CCCN2C(=O)[C@H](CC(C)C)NC1=O [Compound Z-2, Cyclo (Leu-Pro-Leu-Pro-Leu)] (cyclo(LLPLP))	14.45 ± 1.10 (≈ 27.1 µM)	4.68 ± 1.22 (≈ 8.77 µM)	7.97 ± 2.06 (≈ 14.9 µM)	>40	11.95 ± 0.64 (≈ 22.4 µM)	14.50 ± 0.36 (≈ 27.2 µM)	
CC(C)C[C@@H]1NC(=O)[C@@H]2CCCN2C(=O)[C@H](CC(C)C)NC(=O)[C@@H]2CCCN2C(=O)[C@@H](CC(C)C)NC1=O [Cyclo (Leu-Pro-Leu-Pro-D-Leu)]							ring closure, yield after HPLC ([1]; from H-dLeu-Pro-Leu-Pro-Leu-OH?): 58.9%
CC(C)C[C@@H]1NC(=O)[C@@H]2CCCN2C(=O)[C@@H](CC(C)C)NC(=O)[C@@H](CC(C)C)NC(=O)[C@@H]2CCCN2C1=O [Compound Z-6, Cyclo (D-Leu-Pro-Leu-Pro-D-Leu)] (cyclo(LP[dL][dL]P))	4.59 ± 0.27 (≈ 8.6 µM)	1.65 ± 0.30 (≈ 3.09 µM)	5.96 ± 0.41 (≈ 11.2 µM)	38.72 ± 0.67 (≈ 72.5 µM)	2.91 ± 0.17 (≈ 5.45 µM)	5.69 ± 0.37 (≈ 10.7 µM)	Nuclear morphology of MCF-7 cells (in words) (MCF-7 cells [2]): the morphology of the nuclei was significantly changed; Effect on cell cycle of MCF-7 (in words) (MCF-7 cells [3]): mainly blocked the growth of cells in the G0/G1 phase; Apoptosis of MCF-7 cells (in words) (MCF-7 cells [4]): significantly higher than those of galaxamide; also recorded: concentration-dependent apoptosis
CC(C)C[C@@H]1NC(=O)[C@H](CC(C)C)N(C)C(=O)[C@H](CC(C)C)NC(=O)[C@@H]2CCCN2C(=O)[C@H](CC(C)C)NC1=O [Cyclo (Leu-N-Me-Leu-Leu-Pro-Leu)]							ring closure, yield after HPLC ([1]; from H-Leu-Pro-Leu-MeLeu-Leu-OH): 40.7%
CC(C)C[C@@H]1NC(=O)[C@@H]2CCCN2C(=O)[C@@H](CC(C)C)NC(=O)[C@@H]2CCCN2C(=O)[C@H](CC(C)C)NC1=O [Compound Z-5, Cyclo (Leu-Pro-Leu-Pro-D-Leu)] (cyclo(LLP[dL]P))	8.48 ± 1.12 (≈ 15.9 µM)	13.43 ± 1.96 (≈ 25.2 µM)	9.50 ± 1.13 (≈ 17.8 µM)	>40	14.98 ± 0.93 (≈ 28.1 µM)	12.12 ± 0.95 (≈ 22.7 µM)	
CC(C)C[C@@H]1NC(=O)[C@@H]2CCCN2C(=O)[C@@H](CC(C)C)NC(=O)[C@@H]2CCCN2C(=O)[C@@H](CC(C)C)NC1=O [Compound Z-7, Cyclo (Leu-Pro-D-Leu-Pro-D-Leu)] (cyclo(L[dL]P[dL]P))	16.52 ± 1.70 (≈ 31 µM)	13.28 ± 3.28 (≈ 24.9 µM)	9.97 ± 1.00 (≈ 18.7 µM)	>40	13.85 ± 1.99 (≈ 26 µM)	18.21 ± 1.35 (≈ 34.1 µM)	
CC(C)C[C@@H]1NC(=O)[C@@H](CC(C)C)NC(=O)[C@@H]2CCCN2C(=O)[C@H](CC(C)C)NC(=O)[C@@H]2CCCN2C1=O [Compound Z-3, Cyclo (Leu-Pro-Leu-Pro-Leu)] (cyclo(LPLP[dL]))	6.34 ± 0.60 (≈ 11.9 µM)	2.25 ± 0.42 (≈ 4.22 µM)	6.43 ± 0.43 (≈ 12 µM)	>40	5.05 ± 0.45 (≈ 9.46 µM)	5.57 ± 0.45 (≈ 10.4 µM)	Nuclear morphology of MCF-7 cells (in words) (MCF-7 cells [2]): the morphology of the nuclei was significantly changed; Effect on cell cycle of MCF-7 (in words) (MCF-7 cells [3]): mainly blocked the growth of cells in the G0/G1 phase; Apoptosis of MCF-7 cells (in words) (MCF-7 cells [4]): significantly higher than those of galaxamide; also recorded: concentration-dependent apoptosis
CC(C)C[C@@H]1NC(=O)[C@H](CC(C)C)N(C)C(=O)[C@H](CC(C)C)NC(=O)[C@@H]2CCCN2C(=O)[C@H](CC(C)C)NC1=O [Compound Z-1, Cyclo (Leu-N-Me-Leu-Leu-Pro-Leu)]	17.81 ± 0.60 (≈ 31.6 µM)	5.85 ± 1.28 (≈ 10.4 µM)	4.92 ± 0.84 (≈ 8.73 µM)	>40	7.57 ± 0.17 (≈ 13.4 µM)	11.56 ± 0.65 (≈ 20.5 µM)	
CC(C)C[C@H]1NC(=O)[C@@H]2CCCN2C(=O)[C@@H](CC(C)C)NC(=O)[C@@H]2CCCN2C(=O)[C@@H](CC(C)C)NC1=O [Cyclo (D-Leu-Pro-D-Leu-Pro-D-Leu)]							ring closure, yield after HPLC ([1]; from H-dLeu-Pro-dLeu-Pro-dLeu-OH?): 46.2%
CC(C)C[C@@H]1NC(=O)[C@@H]2CCCN2C(=O)[C@H](CC(C)C)NC(=O)[C@@H]2CCCN2C(=O)[C@@H](CC(C)C)NC1=O [Compound Z-4, Cyclo (Leu-Pro-D-Leu-Pro-Leu)] (cyclo(LPL[dL]P))	22.09 ± 1.12 (≈ 41.4 µM)	4.88 ± 0.58 (≈ 9.14 µM)	9.85 ± 0.95 (≈ 18.5 µM)	>40	15.23 ± 1.14 (≈ 28.5 µM)	7.38 ± 0.83 (≈ 13.8 µM)	
CC(C)C[C@@H]1NC(=O)[C@@H]2CCCN2C(=O)[C@@H](CC(C)C)NC(=O)[C@@H]2CCCN2C(=O)[C@@H](CC(C)C)NC1=O [Cyclo (Leu-Pro-D-Leu-Pro-D-Leu)]							ring closure, yield after HPLC ([1]; from H-dLeu-Pro-dLeu-Pro-Leu-OH?): 54.6%

Source: paper PMC8949366, “Synthesis of Marine Cyclopeptide Galaxamide Analogues as Potential Anticancer Agents” (Marine Drugs, 2022)
